How the values were obtained:
HT1080 = test: SRB cell growth assay, 72 h; assay type: cell-based, human
Method: (§1) Cell growth and treatment were performed in 96-well microtitre plates CELLSTAR® (Greiner Bio-One, Germany). Cells harvested from exponential phase cultures by trypsinization were plated in 150 μl of media at optimal seeding densities. The optimal seeding densities for each cell line were determined to ensure exponential growth for the duration of the experiment. All cells growing without anticancer agents were sub-confluent by the end of the treatment as determined by visual inspection.
(§2) 150 μl of cells, after a 24-hour pre-growth period, were treated by mixing with 50 μl of the compound containing media (resulting in a final DMSO concentration of 0.1%). The cells were allowed to grow at 37° C. for 72 hours. In addition, all experiments contained a few plates with cells that were processed for measurement immediately after the 24 hours recovery period. These plates contained information about the cell number that existed before treatment, at time zero, and served to calculate the cytotoxicity.
(§3) After treatment, cells were precipitated by addition of 10% TCA. Prior to fixation, the media was aspirated as described. After an hour of incubation at 4° C., the plates were washed two times with 400 μl of deionized water. Cells were then stained with 100 μl of a 0.08% wt/v SRB. The plates were allowed to sit for at least 30 min. and washed six times with 1% acetic acid to remove unbound stain. The plates were left to dry at room temperature and bound SRB was solubilized with 100 μl of 10 mM Tris base. Measurement of optical density was performed at 560 nm on a Victor 2 plate reader (Perkin Elmer, Germany). The SRB values for A375 and H460 cell lines were near to saturation (2.5 OD units) due to the high protein content of these cells, but not cell confluence. The measurements for these cells were performed at 520 nm instead of 560 nm.
(§4) Using these measurements, cellular responses can be calculated for incomplete inhibition of cell growth (GI), complete inhibition of cell growth (T GI) and net loss of cells (LC) due to compound activity. […] This is the drug concentration causing a 50% reduction compared to the net protein increase in control cells during the drug incubation period. In other words, GI50 is IC50 corrected for time zero. Similar to IC90, calculated GI90 values are also reported for all compounds tested. TGI was calculated from Ti=Tz. […] It was calculated as 100×[(Ti−Tz)/Tz]=−50. However, due to 72 hours treatment, low cell seeding density was required and LC50 could rarely be achieved.

JAR = test: SRB cell growth assay, 72 h; assay type: cell-based, human; details: single agent, up to 50 μM
Method: as §1, §2, §3, §4

MDAMB436 = test: SRB cell growth assay, 72 h; assay type: cell-based, human; details: single agent, up to 50 μM
Method: as §1, §2, §3, §4

MHHES1 = test: SRB cell growth assay, 72 h; assay type: cell-based, human; details: single agent, up to 50 μM
Method: as §1, §2, §3, §4

PLCPRF5 = test: SRB cell growth assay, 72 h; assay type: cell-based, human; details: single agent, up to 50 μM
Method: as §1, §2, §3, §4

SF268 = test: SRB cell growth assay, 72 h; assay type: cell-based, human; details: single agent, up to 50 μM
Method: as §1, §2, §3, §4

JEG3 = test: SRB cell growth assay, 72 h; assay type: cell-based, human; details: single agent, up to 50 μM
Method: as §1, §2, §3, §4

J82 = test: SRB cell growth assay, 72 h; assay type: cell-based, human; details: single agent, up to 50 μM
Method: as §1, §2, §3, §4

NCIH82 = test: SRB cell growth assay, 72 h; assay type: cell-based, human; details: single agent, up to 50 μM
Method: as §1, §2, §3, §4

HEK293 = test: SRB cell growth assay, 72 h; assay type: cell-based, human; details: single agent, up to 50 μM
Method: as §1, §2, §3, §4

217 kinases = details: tested at 10 μM; cited from earlier work
90 non-kinase targets = details: tested at 10 μM; cited from earlier work
[1] = mice and rats; cited from earlier work
[2] = system: HCT116 tumor vascular permeability; test: tumor vascular permeability, Evans Blue extravasation / Dextran-Fitc; assay type: in vivo, SCID mice; details: (1) 10 mg/kg oral daily day 11 to day 13
Method: HCT116 tumor cells were implanted subcutaneously in the intra-scapular region in SCID mice. […] Each agent was given by oral route on a daily schedule. Tumor growth was monitored throughout the experiment by callipering the tumors. To quantify tumor vascular permeability, tumors were excised under ketamine/Xylazine (120/6 mg/kg ip) anesthesia at day 13, 4 hours post last treatment, 30 min after 0.5% Evans Blue iv injection, and 2 min post Dextran-Fitc 100 mg/kg iv injection. Tumors were then snap frozen, and 25 μm sections obtained for fluorescence quantification. Tumors sections were imaged with Icyte at 488 nm for vascular Dextran-Fitc determination and at 633 nm for Evans-Blue extravasation determination. Respective fluorescence were quantified as the sum of integral phantoms of fluorescence intensity and expressed as the mean ratio of Evans-Blue signal/Dextran-Fitc Signal.

PC3 = test: SRB cell growth assay, 72 h; assay type: cell-based; details: Homo sapiens, PC-3, highest tested concentration 50 μM, read-out: activity (estimated)
Method: as §1, §2, §3, §4

TE671 = test: SRB cell growth assay, 72 h; assay type: cell-based; details: Homo sapiens, TE-671, most sensitive cell lines
Method: as §1, §2, §3, §4

HT29 = test: SRB cell growth assay, 72 h; assay type: cell-based; details: Homo sapiens, HT-29, most sensitive cell lines
Method: as §1, §2, §3, §4

SAOS2 = test: SRB cell growth assay, 72 h; assay type: cell-based; details: Homo sapiens, SAOS-2, highest tested concentration 50 μM, read-out: activity (estimated)
Method: as §1, §2, §3, §4

COLO205 = test: SRB cell growth assay, 72 h; assay type: cell-based; details: Homo sapiens, COLO 205, most sensitive cell lines
Method: as §1, §2, §3, §4

[3] = system: PC-3, U87-MG, A2058, WM-266-4 and MCF7 xenografts; details: oral administration alone; PTEN-deficient PC-3, U87-MG, A2058, WM-266-4 or PIK3CA mutated MCF7 xenografts; cited from earlier work
[4] = chemical stability of dosing stock solution; assay type: physicochemical; details: in 1N HCl and water for injection, pH 3; in the dark at 4° C.
Method: Compound (2a) formulation was prepared in water for injection. The stock solution was chemically stable 7 days in the dark at 4° C. […] The pH of the final solution was 3. […]

IGROV1 = test: SRB cell growth assay, 72 h; assay type: cell-based; details: Homo sapiens, IGROV-1, most sensitive, z-score <−1.5
Method: as §1, §2, §3, §4

IMR90 = test: SRB cell growth assay, 72 h; assay type: cell-based; details: Homo sapiens, IMR-90, most sensitive, z-score <−1.5
Method: as §1, §2, §3, §4

SW620 = test: SRB cell growth assay, 72 h; assay type: cell-based; details: Homo sapiens, SW-620, non-sensitive, z score >1.5
Method: as §1, §2, §3, §4

O=C(NC[C@H](O)CO)c1ccncc1Nc1ccc(I)cc1F [Compound (1), N—((S)-2,3-dihydroxypropyl)-3-(2-fluoro-4-iodo-phenylamino)isonicotinamide]
sensitivity (HT1080): very sensitive
activity (cell growth inhibition) (JAR): minimal activity
activity (cell growth inhibition) (MDAMB436): minimal activity
activity (cell growth inhibition) (MHHES1): minimal activity
activity (cell growth inhibition) (PLCPRF5): minimal activity
activity (cell growth inhibition) (SF268): minimal activity
activity (cell growth inhibition) (JEG3): minimal activity
activity (cell growth inhibition) (J82): minimal activity
activity (cell growth inhibition) (NCIH82): minimal activity
activity (cell growth inhibition) (HEK293): minimal activity
activity against 217 kinases (217 kinases): no activity
activity against 90 non-kinase targets (90 non-kinase targets): no activity
clearance [1]: 15 to 43.3 mL/min/kg
half-life [1]: 2.2 to 4.7 h
oral bioavailability [1]: 52-57%
decrease of the Evans-Blue/Dextran-Fitc ratio compared to control [2]: −9%
IC50 (PC3): > 50000 nM
IC50 (TE671): 4.8 to 8 nM
IC50 (HT29): 4.8 to 8 nM
IC50 (SAOS2): > 50000 nM
IC50 (COLO205): 4.8 to 8 nM

CCn1c(=O)c(-c2ccn[nH]2)cc2c(C)nc(N)nc21 [Compound (2b), 2-amino-8-ethyl-4-methyl-6-(1H-pyrazol-5-yl)pyrido[2,3-d]pyrimidin-7(8H)-one]
tumor growth [3]: inhibits tumor growth
stock solution chemically stable [4]: 7 days
GI50 (IGROV1): < 500 nM
GI50 (IMR90): < 500 nM
GI50 (SW620): > 4000 nM

Reference: patent publication US20140024653A1, “COMPOSITIONS AND METHODS FOR TREATING CANCER USING PI3K INHIBITOR AND MEK INHIBITOR” (priority 2011, published 2014)
